Data taken from the Biogen ADME set (Fang et al. 2023).
≈ marks a conversion by molar mass, not a printed value.

Conditions: for aqueous solubility: pH 6.8

| Compound | MDR1-MDCK efflux ratio | aqueous solubility | intrinsic clearance, human liver microsomes | intrinsic clearance, rat liver microsomes | fraction unbound, human plasma | fraction unbound, rat plasma |
| --- | --- | --- | --- | --- | --- | --- |
| Cc1ccc(NC(=O)c2c([O-])n(-c3ccc(C)cc3)n[n+]2Cc2ccccc2)cc1 | 1.02 | 0.21 µg/mL (≈ 0.527 µM) |  |  |  |  |
| COc1ccccc1CNC(=O)c1cnc(C2CCN(C(=O)C(C)(C)C)CC2)nc1C | 9.52 | 69.7 µg/mL (≈ 164 µM) | 218 mL/min/kg | 2960 mL/min/kg |  |  |
| Cc1cc(Br)ccc1CN(C)C(=O)CO | 0.75 |  | ≤ 4.74 mL/min/kg | 28.6 mL/min/kg |  |  |
| Cc1cc(C)cc(C(=O)Nc2c(C#N)cnn2C)c1 | 1.1 | 38.2 µg/mL (≈ 150 µM) | 27.3 mL/min/kg | 80.2 mL/min/kg |  |  |
| Cc1ccsc1CN(C)C(=O)[C@@H]1CCCN1C(=O)NC(C)C | 23.7 | 42.1 µg/mL (≈ 130 µM) | 13 mL/min/kg | 355 mL/min/kg |  |  |
| CCOC(=O)N1CCC(C(=O)Nc2cccc(C)c2)CC1 |  | 56.3 µg/mL (≈ 194 µM) |  |  |  |  |
| Cc1nnc(COc2cccc(-n3ccnc3)c2)n1C1CC1 | 23.1 |  | ≤ 4.74 mL/min/kg | 16.6 mL/min/kg |  |  |
| CCOC(=O)c1c(C)[nH]c(CN(Cc2ccccc2)C(=O)c2ccccc2Cl)c1C | 2.14 | 5.15 µg/mL (≈ 12.1 µM) | 311 mL/min/kg | 1490 mL/min/kg |  |  |
| CC(C(=O)Nc1ccc(C(N)=O)cc1)N1CCCC(c2nc3ccccc3o2)C1 (stereo unspecified) | 15.1 | 56.5 µg/mL (≈ 144 µM) | 183 mL/min/kg | 2180 mL/min/kg |  |  |
| O=C(NCCc1cn2c(n1)CCCC2)c1ccccn1 | 12.2 | 47.6 µg/mL (≈ 176 µM) | ≤ 4.74 mL/min/kg | 26.7 mL/min/kg |  |  |
| CN(Cc1cnn(C)c1)C(=O)c1ccccc1-c1ccccc1C#N | 19.3 | 40.4 µg/mL (≈ 122 µM) | 64 mL/min/kg | ≤ 10.7 mL/min/kg |  |  |
| Cc1cc(C)c(S(=O)(=O)Nc2ccc3c(c2)OCO3)c(C)c1-n1cnnn1 | 24.1 | 17.8 µg/mL (≈ 46 µM) |  |  |  |  |
| CC(C)(O)CNc1ncc(-c2ccnc(Nc3ccnc(Cl)c3)n2)c(CC2CC2)n1 | 10.5 | 21.9 µg/mL (≈ 51.5 µM) | 23.6 mL/min/kg | 149 mL/min/kg |  |  |
| C[C@]1(O)CN(C(=O)Cn2cnc3ccccc3c2=O)CC[C@@H]1Oc1ccccc1 | 11.7 |  | 7.14 mL/min/kg | 44.7 mL/min/kg |  |  |
| Cc1ccc(S(=O)(=O)NC(=O)c2c(C)cc3n2CCn2c(C)ccc2-3)cc1 |  | 33.1 µg/mL (≈ 86.3 µM) |  |  |  |  |
| CCN1CCN(Cc2ccc(Nc3ncc(F)c(-c4cc(F)c5nc(C)n(C(C)C)c5c4)n3)nc2)CC1.CS(=O)(=O)O | 61.4 | 48.2 µg/mL | 129 mL/min/kg | 107 mL/min/kg |  |  |
| c1ccn2cc(CSc3ccc(-n4cccn4)nn3)nc2c1 | 0.732 |  | 18.6 mL/min/kg | 630 mL/min/kg |  |  |
| Cc1nn(Cc2cccc(Br)c2)c(C)c1C(=O)O | 1.58 | 51.4 µg/mL (≈ 166 µM) | ≤ 4.74 mL/min/kg | ≤ 10.7 mL/min/kg |  |  |
| Cc1cc(C(=O)Nc2cccc3ncccc23)on1 | 0.559 | 45.4 µg/mL (≈ 179 µM) | ≤ 4.74 mL/min/kg | 11.1 mL/min/kg |  |  |
| CN(C)c1nccc(N2CCN(CCCCCF)CC2)n1 | 0.419 |  | 32.4 mL/min/kg | 1440 mL/min/kg |  |  |

| Compound | MDR1-MDCK efflux ratio | aqueous solubility | intrinsic clearance, human liver microsomes | intrinsic clearance, rat liver microsomes | fraction unbound, human plasma | fraction unbound, rat plasma |
| --- | --- | --- | --- | --- | --- | --- |
| Fc1cccc(Cl)c1CNCCc1c[nH]c2ccccc12 | 0.457 | 48.3 µg/mL (≈ 159 µM) | 298 mL/min/kg | 2150 mL/min/kg |  |  |
| CC(=O)N1CCC2(C=Cc3cc(C)c(C)cc3O2)CC1 | 0.579 |  | 12.4 mL/min/kg | 1020 mL/min/kg |  |  |
| Cc1ccc(-c2nnc([C@H]3CCN(Cc4cc5ccccc5o4)C3)o2)cc1 | 0.679 | 15.9 µg/mL (≈ 44.2 µM) | 49.2 mL/min/kg | 663 mL/min/kg |  |  |
| Cc1ccc(-c2ccnc(O)c2C#N)cc1 | 0.966 | 11.7 µg/mL (≈ 55.7 µM) | ≤ 4.74 mL/min/kg | 18.9 mL/min/kg |  |  |
| CC(C)CCN1CCc2nc3cc(C4CC4)nn3c(O)c2C1 | 9.05 |  | 7.62 mL/min/kg | 30.3 mL/min/kg |  |  |
| CC(C)CC(=O)Nc1ccc(Cl)c(C#N)c1 |  | 24.1 µg/mL (≈ 102 µM) |  |  |  |  |
| O=C(Nc1cccc2ncccc12)[C@H]1CCCN(S(=O)(=O)c2ccccc2)C1 | 13 |  | 37.9 mL/min/kg | 545 mL/min/kg | 0.167 | 0.123 |
| Cc1nnc(NCCc2ccc3c(c2)OCO3)c(C#N)c1C | 0.636 | 22.4 µg/mL (≈ 75.6 µM) | 52.1 mL/min/kg | 935 mL/min/kg |  |  |
| COc1ccc2c(c1)C=C(CN1CCC(c3cc(-c4cncnc4)cc(C)n3)CC1)CO2 | 1.42 | 22.9 µg/mL (≈ 53.3 µM) | 49.8 mL/min/kg | 201 mL/min/kg |  |  |
| COC(=O)c1cccc2c1CCCN2C(=O)c1ccccc1 | 0.474 |  | 780 mL/min/kg | 2050 mL/min/kg |  |  |
| O=C(NC1CCN(c2ccc(OC(F)(F)F)cc2)CC1)N1CCC1 | 0.716 | 57 µg/mL (≈ 166 µM) | ≤ 4.74 mL/min/kg | 26.4 mL/min/kg |  |  |
| CCCS(=O)(=O)Nc1ccc(F)c(C(=O)c2c[nH]c3ncc(-c4ccc(Cl)cc4)cc23)c1F | 5.52 | 0.35 µg/mL (≈ 0.714 µM) |  |  | 0.00025 |  |
| COc1ccc(Cl)cc1-c1cccc(C(=O)NCCN2CCCC2=O)c1 | 6.01 |  | 106 mL/min/kg | 875 mL/min/kg |  |  |
| Cc1cc(C)nc(NS(=O)(=O)c2ccc(NC(=O)/C=C/c3ccc([N+](=O)[O-])s3)cc2)n1 |  |  | 14 mL/min/kg | 57.3 mL/min/kg |  |  |
| CCn1cnnc1C1CCCN(c2ncnc3sc(-c4ccccc4)cc23)C1 (stereo unspecified) |  | 34.8 µg/mL (≈ 89 µM) |  |  |  |  |
| Cc1noc(C)c1CCC(=O)Nc1cccnc1 | 7.24 | 55.7 µg/mL (≈ 227 µM) | ≤ 4.74 mL/min/kg | 32.1 mL/min/kg |  |  |
| Cc1c(NC(=O)c2cc(C(N)=O)nc3cc(F)ccc23)c(C(F)(F)F)nn1Cc1ccc(C#N)cc1 | 82.1 | 0.18 µg/mL (≈ 0.363 µM) |  |  |  |  |
| CC(C)(C)c1nccc(NCc2ccncc2)n1 | 0.7 | 30.4 µg/mL (≈ 125 µM) | 14.1 mL/min/kg | 748 mL/min/kg |  |  |
| CNc1ncnc2c1ncn2[C@H]1CC[C@H](NC(=O)CCCNC(=O)OC(C)(C)C)[C@H](O)[C@H]1O | 3.2 |  | 5.08 mL/min/kg | 19.9 mL/min/kg |  |  |
| CC(C)Cc1cc(CN2CCN(S(=O)(=O)N3CCOCC3)CC2)n[nH]1 | 23.3 |  | 21.5 mL/min/kg | 284 mL/min/kg |  |  |

| Compound | MDR1-MDCK efflux ratio | aqueous solubility | intrinsic clearance, human liver microsomes | intrinsic clearance, rat liver microsomes | fraction unbound, human plasma | fraction unbound, rat plasma |
| --- | --- | --- | --- | --- | --- | --- |
| CC(C)c1cc(N2CCc3[nH]nc(C4CC4)c3C2)n2nccc2n1 | 6.42 | 23.8 µg/mL (≈ 73.7 µM) | 70.4 mL/min/kg | 381 mL/min/kg |  |  |
| CC(C)CC(=O)Nc1cccnc1N(C)C | 0.597 | 30.3 µg/mL (≈ 137 µM) | ≤ 4.74 mL/min/kg | 57.9 mL/min/kg |  |  |
| CCc1ncnc(N(C)Cc2ccc(N)nc2)c1F | 0.635 | 34.9 µg/mL (≈ 134 µM) | ≤ 4.74 mL/min/kg | 44.2 mL/min/kg |  |  |
| Cc1cc(NC(=O)CN(C)c2c(F)cccc2F)on1 |  | 69.4 µg/mL (≈ 247 µM) |  |  |  |  |
| c1cn2cc(-c3ccc4cn[nH]c4c3)nc(Nc3ccc(N4CCOCC4)cc3)c2n1 |  | 0.1 µg/mL (≈ 0.243 µM) |  |  |  |  |
| CC(C)c1nnc(CN2CCN(c3nccs3)CC2)o1 | 0.971 | 52.1 µg/mL (≈ 177 µM) | ≤ 4.74 mL/min/kg | 122 mL/min/kg |  |  |
| O=C(Cn1nc2n(c1=O)-c1ccccc1C1=NCCN12)N1CCCc2ccccc21 | 7.27 | 1.63 µg/mL (≈ 4.07 µM) | 256 mL/min/kg | 1670 mL/min/kg |  |  |
| Clc1cnc(NCC2(c3ccncc3)CC2)nc1 |  |  | 26 mL/min/kg | 472 mL/min/kg |  |  |
| CC1CCC(O)(CSc2nncn2C(C)C)CC1 (stereo unspecified) | 0.85 |  | 6.42 mL/min/kg | 214 mL/min/kg |  |  |
| Cc1cc(C)cc(NC(=O)COC(=O)c2nn(C)c(=O)c3ccccc23)c1 |  | 0.97 µg/mL (≈ 2.65 µM) |  |  |  |  |
| CCc1cc(N(C)Cc2ccc(N)nc2)nc(C)n1 | 1.99 | 36.5 µg/mL (≈ 142 µM) | ≤ 4.74 mL/min/kg | ≤ 10.7 mL/min/kg |  |  |
| CNC(=O)c1ccc(Nc2ncc(C(F)(F)F)c(NCc3nccnc3N(C)S(C)(=O)=O)n2)cc1 |  | 1.9 µg/mL (≈ 3.72 µM) | 28.1 mL/min/kg | 141 mL/min/kg |  |  |
| CNc1ncc(-c2nc(C3(c4ccccc4)CC3)nn2C(C)(C)C)cn1 | 0.995 | 3.82 µg/mL (≈ 11 µM) | 61.5 mL/min/kg | 878 mL/min/kg |  |  |
| COc1cccc(CN2Cc3ccccc3OC3(CCOCC3)C2)c1 | 0.527 | 16.1 µg/mL (≈ 47.3 µM) | 133 mL/min/kg | 1580 mL/min/kg |  |  |
| Cc1noc(C2CCN(CCc3ccccc3)CC2)n1 | 0.492 | 63.8 µg/mL (≈ 235 µM) | 18 mL/min/kg | 448 mL/min/kg |  |  |
| Cn1c(CNC(=O)Cc2ccccc2)nc2ccccc21 | 2.25 | 44.8 µg/mL (≈ 160 µM) | 7.54 mL/min/kg | 89.6 mL/min/kg |  |  |
| COc1ccnc(N2CC(n3nc(C)cc3C)C2)n1 | 0.655 | 38 µg/mL (≈ 146 µM) | ≤ 4.74 mL/min/kg | 44.2 mL/min/kg |  |  |
| Cc1cnc(NC(=O)Cc2coc3cc(C)c(C)cc23)s1 |  | 0.32 µg/mL (≈ 1.07 µM) |  |  |  |  |
| Cc1noc2nc(-c3ccccc3F)cc(C(=O)O)c12 |  | 39.1 µg/mL (≈ 144 µM) |  |  |  |  |
